Tests used:
pig sepsis model = conditions: intravenous bolus injection; cited from earlier work
mouse CLP model = conditions: WO 2018/154015, cited from earlier work
[1] = test system: CLP-induced polymicrobial sepsis; assay: Chronic model of CLP: survival rate; format: in vivo, mouse; conditions: 30 mg/kg s.c. 2 h after CLP induction and once daily from day 1 to day 6; 10 mice per group
Description: Two models were performed: • A cute model of CLP lasting 24 h to measure vascular hyper-permeability in lung, liver, kidney and heart tissue. The vascular hyper-permeability was followed by the extravasation of Evans blue injected intravenously and diffused and accumulated into the tissue. The vascular hyper-permeability was expressed as μg of Evans blue in 100 mg of dry tissue. • Chronic model of CLP lasting 8 days. CLP is performed on day 0 and the survival rate is followed for 8 consecutive days
On day 0, mice were anesthetized with ketamine (80 mg kg^−1, i.p.) and xylazine (10 mg kg^−1, i.p.). A 1-1.5 cm abdominal midline incision was made, and the caecum was located and tightly ligated at half the distance between distal pole and the base of the caecum with 4-0 silk suture (mild grade). The caecum was punctured through-and-through once with a 21-gauge needle after medium ligation. A small amount of stool was extruded to ensure that the wounds were patent. Then the cecum was replaced in its original position within the abdomen, which was closed with sutures in layers. For negative control animals, a sham surgery was performed: sham-operated animals underwent identical laparotomy but without cecal ligation or puncture. The animals were resuscitated immediately after surgery with 1 mL subcutaneous normal saline and returned to their cages. […]

NCCCC[C@H](NC(=O)[C@@H](Cc1cc(Br)c(O)c(Br)c1)NC(=O)N1CCC(N2Cc3ccccc3NC2=O)CC1)C(=O)N1CCN(c2ccncc2)CC1 [olcegepant]
survival improvement (pig sepsis model): did not show any survival improvement | mice rescued at day 4 (mouse CLP model; 100 mg/kg subcutaneous twice daily, mouse CLP model): 20% | mice rescued (mouse CLP model; subcutaneous bolus injection, mouse sepsis model): 2 out of 10 | survival rate at day 8 [1]: 20%

Source: patent publication US20260174762A1, “OLCEGEPANT FOR TREATING SEPSIS” (Boehringer Ingelheim International GmbH, priority 2022, published 2026)
